According to US20090203716A1, “Pyrimidine low molecular weight ligands for modulating hormone receptors” (The Government of the United States of America as …, priority 2006, published 2009):

Key:
Assay type in all cases: cell-based
FSHR = biological target: T1, FSHR (Homo sapiens, UniProt P23945); experiment: intracellular cAMP accumulation in HEK-EM 293 cells stably expressing FSHR
T1 sequence (P23945 18-695): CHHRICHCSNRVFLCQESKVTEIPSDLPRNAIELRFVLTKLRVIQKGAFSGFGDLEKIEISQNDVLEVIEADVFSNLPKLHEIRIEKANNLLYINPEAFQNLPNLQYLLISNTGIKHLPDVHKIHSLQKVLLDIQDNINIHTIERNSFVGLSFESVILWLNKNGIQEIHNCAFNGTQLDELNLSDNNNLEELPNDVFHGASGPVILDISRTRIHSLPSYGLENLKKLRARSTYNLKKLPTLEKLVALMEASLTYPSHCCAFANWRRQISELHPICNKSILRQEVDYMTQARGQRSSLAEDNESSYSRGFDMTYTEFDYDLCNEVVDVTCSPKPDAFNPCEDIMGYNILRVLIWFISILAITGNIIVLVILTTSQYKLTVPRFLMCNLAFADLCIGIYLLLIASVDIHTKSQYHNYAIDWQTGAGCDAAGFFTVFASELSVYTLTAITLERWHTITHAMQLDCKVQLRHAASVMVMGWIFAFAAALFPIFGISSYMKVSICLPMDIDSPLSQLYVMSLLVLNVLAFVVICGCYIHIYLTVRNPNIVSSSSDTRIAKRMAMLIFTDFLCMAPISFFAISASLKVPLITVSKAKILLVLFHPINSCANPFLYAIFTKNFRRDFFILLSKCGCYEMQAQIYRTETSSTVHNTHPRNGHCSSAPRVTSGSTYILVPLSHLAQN
Procedure: The expression vectors for human TSHR and LHR are described in Jaschke et al., J Biol Chem 281:9841-9844. The FSHR cDNA in pcDNA3.1 was obtained from the Missouri S&T cDNA Resource Center (www.cDNA.org) and was subcloned into the pcDNA3.1(−)/hygromycin vector. HEK-EM 293 cells were transfected with the cDNA of TSHR, LHCGR or FSHR using FuGENE 6 Transfection reagent (Roche Diagnostics). Hygromycin (250 μg/ml) was used as selection marker.
(§1) Transiently transfected cells were cultured for 48 hours before the cAMP assay. HEK-EM 293 cells stably expressing TSHR, LHCGR or FSHR were seeded into 24-well plates with a density of 2.2×10^5 cells/well 24 hours before the cAMP assay. After removal of growth medium, cells were incubated for 1 hour in HBSS (Cellgro) with 10 mM HEPES (Cellgro) containing 1 mM 3-isobutyl-1-methylxanthine (IBMX) (Sigma) and the ligand of interest in a humidified 5% CO2 incubator at 37° C. The intracellular cAMP content was determined with the cAMP Biotrak Enzymeimmunoassay (EIA) System (GE Healthcare). Data were analyzed using GraphPad Prism 4 for Windows. Receptor expression was measured as described in Jaschke et al., J Biol Chem 281:9841-9844.

[1] = system: thyroperoxidase (TPO) mRNA expression in human thyrocytes; experiment: TPO mRNA expression in primary cultures of human thyrocytes; design: inhibition of TSH-stimulated increase of TPO mRNA expression: dose or concentration left out as unconfirmed
Procedure: Thyroid tissue samples were obtained through the NIH Clinical Center during surgery for unrelated reasons. Patients provided informed consent on an IRB approved protocol and materials were received anonymously via approval of research activity through the Office of Human Subjects Research. The specimens were maintained in HBSS on ice and isolation of cells was initiated within 4 hours after surgery. All preparations were performed under sterile conditions. Tissue samples were minced into small pieces by fine surgical forceps and scissors in a 10 cm dish with a small volume of HBSS. Tissue pieces were transferred to a 15 ml tube (Falcon) and washed at least 3 times with HBSS. Afterward, tissue pieces were incubated with HBSS containing 3 mg/ml Collagenase Type IV (Gibco). Enzymatic digestion proceeded for 30 minutes or longer with constant shaking in a water bath at 37° C. until a suspension of isolated cells was obtained. After centrifugation for 5 minutes at 1000 rpm, the supernatant was removed and cells were resuspended in 10 ml DMEM with 10% FBS. Cells were plated in 10 cm tissue culture dishes and incubated at 37° C. in a humidified 5% CO2 incubator. After 24 hours, the supernatant containing non-adherent cells was removed. The primary cultures of thyroid cells formed a confluent monolayer within 5-7 days. […]

TSHR = TSHR (Homo sapiens, UniProt P16473); experiment: inhibition of TSH-mediated cAMP response in HEK-EM 293 cells stably expressing TSHR; design: expressed in transfected cells
Procedure: as §1
The TSH-mediated cAMP response of TSHR was inhibited by a maximum of 70.8±5.5% at 30 μM compound 52. […] Compound 52 has no activity at FSHR.
To exclude the possibility that compound 52 might be acting independently of TSHR by building aggregates with TSH, thereby inhibiting the TSH-induced response, tests were conducted for a possible aggregation between these two ligands. Compound 52 and TSH were preincubated for up to 15 minutes before addition to HEK-EM 293 cells stably expressing TSHR. […] There was no difference in the antagonistic effect whether TSH and compound 52 were preincubated together or not (data not shown) thereby excluding the possibility that its effect was caused by aggregation with TSH.

TSHR mutant Y7.42A = biological target: T2, TSHR mutant Y7.42A (Homo sapiens, UniProt P16473, Y667A); experiment: cAMP production in HEK-EM 293 cells transiently expressing TSHR mutant Y7.42A; conditions: 30 μM compound
T2 construct: expressed in transfected cells; host or cells: HEK-EM 293 (transient, FuGENE 6)
Procedure: HEK-EM 293 cells were grown in Dulbecco's modified Eagle's Medium (DMEM) supplemented with 10% fetal bovine serum, 100 units/ml penicillin and 10 μg/ml streptomycin (Life Technologies Inc.) at 37° C. in a humidified 5% CO2 incubator. Cells were transiently transfected with wild type TSHR and mutant receptors in 24-well plates (7.5×10^4 cells per well) with 0.4 μg DNA/well using FuGENE™ 6 reagent (Roche) according to the manufacturer's protocol.
The M9 mutant is described in Jaschke et al., J Biol Chem 281:9841-9844. The Y7.42A mutant was introduced into hTSHR-pcDNA3.1 via the QuickChange XL Site-Directed Mutagenesis kit (Stratagene). The construct was verified by sequencing (MWG Biotech).
as §1, with “After removal of growth medium, cells were incubated for 1 hour in HBSS (Cellgro) with 10 mM HEPES (Cellgro) containing 1 mM 3-isobutyl-1-methylxanthine (IBMX) (Sigma) and the ligand of interest in a humidified 5% CO2 incubator at 37° C.” left out

Sequence of TSHR (P16473 21-764): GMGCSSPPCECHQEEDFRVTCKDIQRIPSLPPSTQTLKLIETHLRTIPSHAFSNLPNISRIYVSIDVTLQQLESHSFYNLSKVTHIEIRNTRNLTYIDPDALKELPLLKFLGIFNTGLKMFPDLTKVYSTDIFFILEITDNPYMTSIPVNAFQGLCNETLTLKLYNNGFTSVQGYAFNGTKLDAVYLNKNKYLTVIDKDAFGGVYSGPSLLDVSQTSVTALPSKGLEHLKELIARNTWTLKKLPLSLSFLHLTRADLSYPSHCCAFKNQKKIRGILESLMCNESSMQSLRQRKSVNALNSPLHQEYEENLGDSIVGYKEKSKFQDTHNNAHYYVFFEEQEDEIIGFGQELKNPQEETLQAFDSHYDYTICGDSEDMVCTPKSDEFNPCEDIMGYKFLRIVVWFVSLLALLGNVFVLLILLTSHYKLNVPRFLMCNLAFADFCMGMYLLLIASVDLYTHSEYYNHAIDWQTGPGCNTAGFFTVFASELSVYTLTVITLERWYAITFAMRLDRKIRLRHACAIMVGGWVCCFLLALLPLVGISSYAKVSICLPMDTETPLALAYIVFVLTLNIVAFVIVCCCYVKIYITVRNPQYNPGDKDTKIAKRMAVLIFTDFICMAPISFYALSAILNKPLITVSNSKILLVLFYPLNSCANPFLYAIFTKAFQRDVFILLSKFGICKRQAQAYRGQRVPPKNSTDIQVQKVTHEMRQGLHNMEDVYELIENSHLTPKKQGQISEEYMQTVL
T2 sequence (P16473 21-764 Y667A): as the sequence (P16473 21-764) above, with Y647A counted along it

activity at FSHR (FSHR): no activity
inhibition of TSH-stimulated increase of TPO mRNA expression ([1]; 1 hour pretreatment, 24 hours with TSH, thyrocytes from two donors): inhibited
inhibition of TsAb-stimulated TPO mRNA expression ([1]; Graves' disease sera 1:50, 10 μM compound, 24 hours): inhibited
antagonistic activity at TSHR in cAMP assay (TSHR): antagonist
selectivity toward TSHR compared to LHCGR and FSHR (TSHR): selective toward TSHR
antagonistic effect with or without preincubation with TSH (aggregation test) (TSHR; 30 μM compound, 1.8 nM TSH, preincubated up to 15 minutes): no difference
inhibition at 30 µM (TSHR; HEK-EM293, read-out: maximum inhibition of TSH-mediated cAMP response of TSHR): 70.8 ± 5.5%
IC50 (TSHR; with EC50 dose of TSH): 4.2 µM
cAMP production, fold over TSHR basal activity, Y7.42A (TSHR mutant Y7.42A): 3.2±0.9 fold
SMILES: COC/C=C/c1ccc(-c2nc(SC)nc3sc(C(=O)NC(C)(C)C)c(N)c23)cc1 [Compound 52]
